These are literature values, as cited in patent US20080305994A1, “Pharmaceutical Compositions and Method for Treating, Reducing, Ameliorating, Alleviating, or Preventing Dry Eye” (priority 2007, published 2008).

Structures are written as SMILES.

The test system of series [1] is intercellular adhesion molecule 1 ("ICAM-1"). The conditions noted are these: rabbits; inhibition of PARP.
In series [2] the test system is lipopolysaccharide ("LPS")-induced leukocyte recruitment within pulmonary arterioles, capillaries, and venules. To be noted: rabbits, inhibition of PARP.

On to `NC(=O)c1cccc(N)c1` [3-aminobenzamide], for which the “expression of intercellular adhesion molecule 1 (ICAM-1)” value in series [1] is “suppressed”. Further, the “LPS-induced leukocyte recruitment within pulmonary arterioles, capillaries, and venules” value in series [2] is recorded as “reduced”.
